Measured values as given in patent US8952024B2, “Herbicidal pyrimidone derivatives” (E I du Pont de Nemours and Company, priority 2009, dated 2015).

Columns and labels:
Assay type in all cases: in vivo
[1] = tested on: canarygrass (Phalaris minor); test: Test B postemergence plant response
Outline: (§1)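 Plants at the 1- to 4-leaf stage (2 to 18 cm tall), grown in pots of peat moss/vermiculite medium with wetting agent and starter nutrients, received postemergence applications of test chemicals. After 13 to 15 days in a greenhouse, injury was rated visually against untreated controls on a 0 (no effect) to 100 (complete control) scale.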

[2] = tested on: winter barley (Hordeum vulgare); test: Test B postemergence plant response; conditions: for Barley plant response rating (0 to 100 scale): 62 g ai/ha, 0 is no effect, 13 to 15 days
Outline: as §1

[3] = tested on: windgrass (Apera spica-venti); test: Test B postemergence plant response; conditions: for Plant response rating, Windgrass: Postemergence
Outline: as §1

[4] = tested on: chickweed (Stellaria media); test: Test B postemergence plant response
Outline: as §1

[5] = tested on: lambsquarters (Chenopodium album); test: Test B pre-/postemergence plant response
Outline: (§2)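 Plants treated either at seeding (loam/sand soil) or postemergence at 2 to 18 cm height, using a surfactant-containing non-phytotoxic solvent formulation. Evaluation was visual after 13 to 15 days, 0 to 100 scale relative to controls.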

[6] = tested on: goosegrass (Eleusine indica); test: Test B pre-/postemergence plant response
Outline: as §2

[7] = tested on: yellow nutsedge (Cyperus esculentus); test: Test B pre-/postemergence plant response
Outline: as §2

soybean (Glycine max) = test: Test B pre-/postemergence plant response; conditions: for Plant response rating, Soybean: Postemergence
Outline: as §2

[8] = tested on: velvetleaf (Abutilon theophrasti); test: Test B pre-/postemergence plant response; conditions: for Plant response rating, Velvetleaf: Postemergence
Outline: as §2

[9] = tested on: green foxtail (Setaria viridis); test: Test B pre-/postemergence plant response
Outline: as §2

[10] = tested on: giant foxtail (Setaria faberii); test: Test B pre-/postemergence plant response
Outline: as §2

corn (Zea mays) = test: Test B pre-/postemergence plant response
Outline: as §2

[11] = tested on: pigweed (Amaranthus retroflexus); test: Test B pre-/postemergence plant response
Outline: as §2

[12] = tested on: johnsongrass (Sorghum halepense); test: Test B pre-/postemergence plant response
Outline: as §2

[13] = 31 g ai/ha, postemergence, scale 0 to 100, 0 is no effect, 100 is complete control
[14] = 62 g ai/ha, postemergence, 0 is no effect, 100 is complete control, 13 to 15 days
[15] = Postemergence, 125 g ai/ha, scale 0 to 100 (0 no effect, 100 complete control)
[16] = Postemergence, 250 g ai/ha, scale 0 to 100 (0 no effect, 100 complete control)
[17] = postemergence, 100 is complete control
[18] = 125 g ai/ha, scale 0 to 100 (0 no effect, 100 complete control)
[19] = 250 g ai/ha, scale 0 to 100 (0 no effect, 100 complete control)
[20] = 8 g ai/ha, Postemergence, 0 to 100 scale
[21] = 16 g ai/ha, Postemergence, 0 to 100 scale
[22] = Postemergence, 31 g ai/ha, 0 to 100 scale (0 no effect, 100 complete control)
[23] = 31 g ai/ha, 0 to 100 scale (0 no effect, 100 complete control)

SMILES: COCC(C)n1c(-c2ccccc2)ncc(C(=O)C2=C(O)CCCC2=O)c1=O (centres unmarked) [Compound 107]
- Plant response rating, Canarygrass [1, 13]: 5
- Canarygrass plant response rating (0 to 100 scale) [1, 14]: 15
- Plant response rating, Canarygrass [1, 15]: 60
- Plant response rating, Canarygrass [1, 16]: 80
- Plant response rating, Barley [2, 13]: 0
- Barley plant response rating (0 to 100 scale) [2, 17]: 5
- Plant response rating, Barley [2, 15]: 25
- Plant response rating, Barley [2, 16]: 30
- Windgrass plant response rating (0 to 100 scale) [3, 14]: 40
- Plant response rating, Windgrass [3, 18]: 80
- Plant response rating, Chickweed [4, 13]: 98
- Chickweed plant response rating (0 to 100 scale) [4, 14]: 100
- Plant response rating, Chickweed [4, 15]: 100
- Plant response rating, Chickweed [4, 16]: 100
- Plant response rating, Lambsquarters [5, 13]: 90
- Lambsquarters plant response rating (0 to 100 scale) [5, 14]: 100
- Plant response rating, Lambsquarters [5, 15]: 100
- Plant response rating, Lambsquarters [5, 16]: 100
- Plant response rating, Goosegrass [6, 13]: 75
- Goosegrass plant response rating (0 to 100 scale) [6, 14]: 75
- Plant response rating, Goosegrass [6, 15]: 75
- Plant response rating, Goosegrass [6, 16]: 85
- Plant response rating, Nutsedge, Yellow [7, 13]: 75
- Nutsedge, Yellow plant response rating (0 to 100 scale) [7, 14]: 75
- Plant response rating, Nutsedge, Yellow [7, 15]: 75
- Plant response rating, Nutsedge, Yellow [7, 16]: 85
- Soybean plant response rating (0 to 100 scale) (soybean (Glycine max); [14]): 98
- Plant response rating, Soybean (soybean (Glycine max); [18]): 100
- Plant response rating, Soybean (soybean (Glycine max); [19]): 100
- Velvetleaf plant response rating (0 to 100 scale) [8, 14]: 100
- Plant response rating, Velvetleaf [8, 18]: 100
- Plant response rating, Velvetleaf [8, 19]: 100
- Plant response rating, Foxtail, Green [9, 13]: 70
- Foxtail, Green plant response rating (0 to 100 scale) [9, 14]: 75
- Plant response rating, Foxtail, Green [9, 15]: 90
- Plant response rating, Foxtail, Green [9, 16]: 98
- Plant response rating, Foxtail, Giant [10, 13]: 75
- Foxtail, Giant plant response rating (0 to 100 scale) [10, 14]: 80
- Plant response rating, Foxtail, Giant [10, 15]: 85
- Plant response rating, Foxtail, Giant [10, 16]: 95
- Plant response rating, Corn (corn (Zea mays); [13]): 65
- Corn plant response rating (0 to 100 scale) (corn (Zea mays); [14]): 65
- Plant response rating, Corn (corn (Zea mays); [15]): 75
- Plant response rating, Corn (corn (Zea mays); [16]): 85
- Plant response rating, Pigweed [11, 13]: 95
- Pigweed plant response rating (0 to 100 scale) [11, 14]: 100
- Plant response rating, Pigweed [11, 15]: 100
- Plant response rating, Pigweed [11, 16]: 100
- Plant response rating, Johnsongrass [12, 13]: 60
- Johnsongrass plant response rating (0 to 100 scale) [12, 14]: 70
- Plant response rating, Johnsongrass [12, 15]: 70
- Plant response rating, Johnsongrass [12, 16]: 90

SMILES: Cc1ccccc1-n1c(-c2cc(F)cc(F)c2)ncc(C(=O)C2=C(O)CCCC2=O)c1=O [Compound 159]
- Plant response rating, Canarygrass [1, 20]: 25
- Plant response rating, Canarygrass [1, 21]: 40
- Plant response rating, Canarygrass [1, 22]: 80
- Plant response rating, Barley [2, 20]: 0
- Plant response rating, Barley [2, 21]: 20
- Barley plant response rating (0 to 100 scale) [2, 17]: 50
- Plant response rating, Barley [2, 22]: 20
- Plant response rating, Windgrass ([3]; 8 g ai/ha, 0 to 100 scale): 10
- Plant response rating, Windgrass ([3]; 16 g ai/ha, 0 to 100 scale): 40
- Plant response rating, Windgrass [3, 23]: 45
- Plant response rating, Chickweed [4, 20]: 80
- Plant response rating, Chickweed [4, 21]: 100
- Plant response rating, Chickweed [4, 22]: 100
- Plant response rating, Lambsquarters [5, 20]: 90
- Plant response rating, Lambsquarters [5, 21]: 95
- Plant response rating, Lambsquarters [5, 22]: 100
- Plant response rating, Goosegrass [6, 20]: 70
- Plant response rating, Goosegrass [6, 21]: 80
- Plant response rating, Goosegrass [6, 22]: 85
- Plant response rating, Nutsedge, Yellow [7, 20]: 10
- Plant response rating, Nutsedge, Yellow [7, 21]: 20
- Plant response rating, Nutsedge, Yellow [7, 22]: 40
- Plant response rating, Soybean (soybean (Glycine max); 8 g ai/ha, 0 to 100 scale): 80
- Plant response rating, Soybean (soybean (Glycine max); 16 g ai/ha, 0 to 100 scale): 85
- Plant response rating, Soybean (soybean (Glycine max); [23]): 95
- Plant response rating, Velvetleaf ([8]; 8 g ai/ha, 0 to 100 scale): 98
- Plant response rating, Velvetleaf ([8]; 16 g ai/ha, 0 to 100 scale): 100
- Plant response rating, Velvetleaf [8, 23]: 100
- Plant response rating, Foxtail, Green [9, 20]: 50
- Plant response rating, Foxtail, Green [9, 21]: 80
- Plant response rating, Foxtail, Green [9, 22]: 85
- Plant response rating, Foxtail, Giant [10, 20]: 75
- Plant response rating, Foxtail, Giant [10, 21]: 80
- Plant response rating, Foxtail, Giant [10, 22]: 85
- Plant response rating, Corn (corn (Zea mays); [20]): 15
- Plant response rating, Corn (corn (Zea mays); [21]): 25
- Plant response rating, Corn (corn (Zea mays); [22]): 60
- Plant response rating, Pigweed [11, 20]: 55
- Plant response rating, Pigweed [11, 21]: 75
- Plant response rating, Pigweed [11, 22]: 95
- Plant response rating, Johnsongrass [12, 20]: 10
- Plant response rating, Johnsongrass [12, 21]: 45
- Plant response rating, Johnsongrass [12, 22]: 45
